Results on two molecules are retold here after ChEMBL document CHEMBL5726932, “Cyclopropanecarboxylic acid GPR120 modulators” (2018).

For the test, the target named is T1, Free fatty acid receptor 4 (Homo sapiens, UniProt Q5NUL3).
T1 sequence (Q5NUL3 whole entry): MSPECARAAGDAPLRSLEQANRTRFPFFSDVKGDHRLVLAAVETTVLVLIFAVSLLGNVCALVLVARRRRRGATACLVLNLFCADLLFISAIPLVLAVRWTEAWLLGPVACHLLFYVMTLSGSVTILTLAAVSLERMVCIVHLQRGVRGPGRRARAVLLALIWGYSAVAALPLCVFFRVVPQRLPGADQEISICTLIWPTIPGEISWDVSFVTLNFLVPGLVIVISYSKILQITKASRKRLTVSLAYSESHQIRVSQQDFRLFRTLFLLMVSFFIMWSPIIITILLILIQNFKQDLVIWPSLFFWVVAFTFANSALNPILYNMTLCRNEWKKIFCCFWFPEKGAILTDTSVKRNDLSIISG
The test is described as follows: GPR120 pERK assay: For the pERK assay, 3×10^6 cells/mL cryopreserved human and mouse cells were thawed rapidly in a 37° C. water bath and added to a T-225 flask containing 50 mL growth medium. The flasks were placed in a tissue culture incubator overnight (37° C., 5% CO2). The next day, cells were harvested with trypsin (Gibco Cat. #25300-054), resuspended in serum-containing growth medium and counted using a Cellometer and volume adjusted to a concentration of 0.5×10^6 cells/mL. Cells were plated into 384-well clear bottom tissue culture plates (BD Cat. #353962) at 50 μL/well, for a density of 25,000 cells/well using a MULTIDROP® and incubated for 16-18 hours (overnight) at 37° C. with 5% CO2. The next day, cells were washed once with 50 μL of PBS without Ca++/Mg++ (Gibco Cat. #14190-036) and serum starved in 25 μL of F-12 media without any serum or antibiotics for 2 hours at 37° C.Test compounds were 3-fold, 11-point serially diluted in DMSO in a REMP assay plate (Matrix Cat. #4307) by Tecan and 5 μL was transferred into an ECHO source plate (Labcyte Cat. #LC-0200). Cells were then stimulated with 40 nL of compound dilutions using ECHO liquid handler for 7 min at 37° C. […].

SMILES strings stand for the structures.

One may read the EC50 as the concentration giving half of the maximal effect. Higher therefore signals a need for much substance. `O=C(O)C1CC1COc1ccc(-c2ccccc2-c2ccccc2)cc1` (configuration not stated): it took 6.84 µM to reach a half-maximal effect (EC50).
Then `O=C(O)C1CC1COc1ccc(-c2cccc(-c3ccccc3)c2)cc1` (configuration not stated), with 1.7 µM.
